In ChEMBL document CHEMBL1201862, “PubChem BioAssay data set” (2004):
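Growth conditions: 96-well plates. Treatment: test compound, 48 hours, 5 concentrations. Analysis: linear interpolation between bracketing concentrations; unreached endpoints set to highest concentration. Abbreviation: GI50, concentration required for 50% inhibition of growth.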 Active and inactive are the calls of the source. No stated cut-off is given here; in the data, active = GI50 up to about 1.1 µM and inactive = higher.

Columns and labels:
Test in all cases: NCI anticancer screen, dose series, 48 h
[1] = tested on: HCT-15
[2] = tested on: UACC-257
[3] = tested on: T47D
[4] = tested on: Malme-3M
[5] = tested on: MDA-N
[6] = tested on: OVCAR-5
[7] = tested on: A549
[8] = tested on: SK-MEL-2
[9] = tested on: SW-620
[10] = tested on: MDA-MB-435
[11] = tested on: 786-0
[12] = tested on: UACC-62
[13] = tested on: IGROV-1
[14] = tested on: SK-OV-3
[15] = tested on: MDA-MB-231
[16] = tested on: EKVX
[17] = tested on: HT-29
[18] = tested on: SK-MEL-28
[19] = tested on: U-251
[20] = tested on: RPMI-8226

Row | SMILES | GI50 [1] [µM] | GI50 [2] | GI50 [3] | GI50 [4] | GI50 [5] | GI50 [6] | GI50 [7] | GI50 [8] | GI50 [9] | GI50 [10] | GI50 [11] | GI50 [12] | GI50 [13] | GI50 [14] | GI50 [15] | GI50 [16] | GI50 [17] | GI50 [18] | GI50 [19] | GI50 [20]
1 | Cc1cc2ncc3c(=O)n(NS(=O)(=O)c4ccc(N)cc4)ccc3n2n1 | > 100 | > 100 µM (inactive) | > 100 µM (inactive) | 36.3 µM (inactive) | > 100 µM (inactive) | > 100 µM (inactive) | > 100 µM (inactive) | > 100 µM (inactive) | > 100 µM (inactive) | > 100 µM (inactive) | > 100 µM (inactive) | > 100 µM (inactive) | > 100 µM (inactive) | > 100 µM (inactive) | > 100 µM (inactive) | > 100 µM (inactive) | > 100 µM (inactive) | > 100 µM (inactive) | > 100 µM (inactive) | 
2 | O=C(O)CNC(=O)c1ccc(-c2ccccc2)cc1 | > 100 | > 100 µM (inactive) | > 100 µM (inactive) | > 100 µM (inactive) | > 100 µM (inactive) | > 100 µM (inactive) | > 100 µM (inactive) | > 100 µM (inactive) | > 100 µM (inactive) | > 100 µM (inactive) | > 100 µM (inactive) | > 100 µM (inactive) | > 100 µM (inactive) | > 100 µM (inactive) | > 100 µM (inactive) | > 100 µM (inactive) |  | > 100 µM (inactive) | > 100 µM (inactive) | > 100 µM (inactive)
3 | CCO[C@H]1C[C@@H](c2ccccc2)[C@]2(C)C[C@H](C(=O)OC)ON2O1 | > 100 | > 100 µM (inactive) | > 100 µM (inactive) | > 100 µM (inactive) | > 100 µM (inactive) | > 100 µM (inactive) | > 100 µM (inactive) | > 100 µM (inactive) | > 100 µM (inactive) | > 100 µM (inactive) | > 100 µM (inactive) | > 100 µM (inactive) | > 100 µM (inactive) |  | > 100 µM (inactive) | > 100 µM (inactive) | > 100 µM (inactive) | > 100 µM (inactive) | > 100 µM (inactive) | > 100 µM (inactive)
4 | CC(C)(Oc1ccc(Cl)cc1)C(=O)N(C(=O)N1CCCCC1)c1ccccc1 | 6.28 |  | 0.891 µM (active) | 12 µM (inactive) | 24.5 µM (inactive) | 12 µM (inactive) |  | 13.1 µM (inactive) | 12.9 µM (inactive) | 16 µM (inactive) | 13.4 µM (inactive) | 13.2 µM (inactive) | 5.09 µM (inactive) | 19.8 µM (inactive) | 10.6 µM (inactive) | 2.45 µM (inactive) | 8.34 µM (inactive) | 15.2 µM (inactive) | 14.2 µM (inactive) | 7.55 µM (inactive)
5 | O=C(Nc1ccc(Br)cc1)c1c(-c2ccccc2)c2ccc(O)cc2oc1=O | > 10 | > 10 µM (inactive) | > 10 µM (inactive) | > 10 µM (inactive) | > 10 µM (inactive) | > 10 µM (inactive) |  | > 10 µM (inactive) | > 10 µM (inactive) | > 10 µM (inactive) | > 10 µM (inactive) |  | > 10 µM (inactive) | > 10 µM (inactive) | > 10 µM (inactive) | > 10 µM (inactive) | > 10 µM (inactive) | > 10 µM (inactive) | > 10 µM (inactive) | > 10 µM (inactive)
6 | COc1cc2c(cc1OC)C(=O)/C(=C/c1ccccc1)CC2 | 20.8 | 61.2 µM (inactive) | 26.1 µM (inactive) | > 100 µM (inactive) | 12.4 µM (inactive) | 27.4 µM (inactive) | 27.7 µM (inactive) | 14.1 µM (inactive) | 40.4 µM (inactive) | 8.09 µM (inactive) | 34.9 µM (inactive) |  | 38.9 µM (inactive) | 25.5 µM (inactive) | > 100 µM (inactive) | 56.1 µM (inactive) | 17.9 µM (inactive) | 64.9 µM (inactive) | 53.2 µM (inactive) | 23.4 µM (inactive)
7 | Cc1cc(NCCCCCCCCCC[n+]2c(C)cc(N)c3ccccc32)c2ccccc2n1 | 3.95 | 0.216 µM (active) | 0.333 µM (active) | 1.82 µM (inactive) | 1.04 µM (active) | 4.2 µM (inactive) | 0.378 µM (active) | 1.87 µM (inactive) | 1.84 µM (inactive) | 1.01 µM (active) | 1.78 µM (inactive) | 1.16 µM (inactive) | 0.419 µM (active) | 1.11 µM (active) | 0.652 µM (active) |  |  | 1.47 µM (inactive) | 0.069 µM (active) | 0.029 µM (active)
8 | Cc1cc(C)c(OC(=O)Nc2cccc3ccccc23)c(-c2ccccc2)c1 | 34.4 |  | 48.6 µM (inactive) | 32.4 µM (inactive) | 29 µM (inactive) | 73.8 µM (inactive) | 32.6 µM (inactive) | > 10 µM (inactive) | 57.8 µM (inactive) | 30.1 µM (inactive) | 50.5 µM (inactive) | 30.4 µM (inactive) | 36.5 µM (inactive) | 67.6 µM (inactive) | 25.5 µM (inactive) | 38.3 µM (inactive) | 43.2 µM (inactive) | 31.3 µM (inactive) | 37.8 µM (inactive) | 22.5 µM (inactive)
